The values that follow come from patent US20250353855A1, “HETEROCYCLIC AND HETEROARYL COMPOUNDS FOR TREATING HUNTINGTON'S DISEASE” (PTC THERAPEUTICS, INC., priority 2022, published 2025).

Structures are written as SMILES. Where only a bound is given, the exact number is not on record here.

The test system of the first assay is Endogenous Huntingtin Protein. Briefly: Endogenous Huntingtin Protein Assay (ELISA-based MSD electrochemiluminescence). Format: cell-based. The settings on record: MSD plates coated with MW1 (expanded polyglutamine) or MAB2166 capture antibody; lysates. As for the experimental part: Compounds of Formula (T) were tested using the Meso Scale Discovery (MSD) Assay provided in International Application No. PCT/US2016/066042, filed on Dec. 11, 2016 and claiming priority to U.S. Provisional Application 62/265,652 filed on Dec. 10, 2015, the entire contents of which are incorporated herein by reference.
The Endogenous Huntingtin Protein assay used in Example 1 was developed using the ELISA-based MSD electrochemiluminescence assay platform.
Meso Scale Discovery (MSD) 96-well or 384-well plates were coated overnight at 4° C. with MW1 (expanded polyglutamine) or MAB2166 monoclonal antibody (for capture) at a concentration of 1 μg/mL in PBS (30 μL per well). Plates were then washed three times with 300 μL wash buffer (0.05% Tween-20 in PBS) and blocked (100 μL blocking buffer; 5% BSA in PBS) for 4-5 hours at room temperature with rotational shaking and then washed three times with wash buffer.
Samples (25 μL) were transferred to the antibody-coated MSD plate and incubated overnight at 4° C. After removal of the lysates, the plate was washed three times with wash buffer, and 25 μL of #5656S (Cell signaling; rabbit monoclonal) secondary antibody (diluted to 0.25 μg/mL in 0.05% Tween-20 in blocking buffer) was added to each well and incubated with shaking for 1 Hour at room temperature. Following incubation with the secondary antibody, the wells were rinsed with wash buffer after which 25 μL of goat anti-rabbit SULFO TAG secondary detection antibody (required aspect of the MSD system) (diluted to 0.25 μg/mL in 0.05% Tween-20 in blocking buffer) was added to each well and incubated with shaking for 1 hour at room temperature. After rinsing three times with wash buffer, 150 μL of read buffer T with surfactant (MSD) were added to each empty well, and the plate was imaged on a SI 6000 imager (MSD) according to manufacturers' instructions provided for 96- or 384-well plates.
Turning to `Cn1ncc2cc(O)c(-c3cc4c(nn3)N([C@H]3CC(C)(C)NC(C)(C)[C@H]3F)CC4)cc21` [Cpd 62, 6-{7-[(3S,4S)-3-fluoro-2,2,6,6-tetramethylpiperidin-4-yl]-6,7-dihydro-5H-pyrrolo[2,3-c]pyridazin-3-yl}-1-methyl-1H-indazol-5-ol], the IC50 is under 100 nM. For the compound `COc1cnc2cc(-c3cc4ccn([C@H]5CC(C)(C)NC(C)(C)[C@H]5F)c4nn3)c(O)cc2n1` [Cpd 33, 7-{7-[(3S,4S)-3-fluoro-2,2,6,6-tetramethylpiperidin-4-yl]-7H-pyrrolo[2,3-c]pyridazin-3-yl}-3-methoxyquinoxalin-6-ol], the IC50 was under 100 nM.

For the compound `COc1cnc2cc(-c3cc4c(nn3)N([C@H]3CC(C)(C)NC(C)(C)[C@H]3F)CC4)c(O)cc2n1` [Cpd 84, 7-{7-[(3S,4S)-3-fluoro-2,2,6,6-tetramethylpiperidin-4-yl]-6,7-dihydro-5H-pyrrolo[2,3-c]pyridazin-3-yl}-3-methoxyquinoxalin-6-ol], the IC50 was under 100 nM.

Still in this assay, the particulars now being: MSD plates coated with MW1 (expanded polyglutamine) or MAB2166 capture antibody; lysates; read-out: IC50.
On to `Cn1cc2cc(O)c(-c3cc4c(nn3)N([C@H]3CC(C)(C)NC(C)(C)[C@H]3F)CC4)cc2n1` [Cpd 89, 6-{7-[(3S,4S)-3-fluoro-2,2,6,6-tetramethylpiperidin-4-yl]-6,7-dihydro-5H-pyrrolo[2,3-c]pyridazin-3-yl}-2-methyl-2H-indazol-5-ol], for which the IC50 was under 100 nM. `Cc1cc(=O)oc2cc(O)c(-c3cc4c(nn3)N([C@@H]3C[C@H]5CC[C@H](N5)[C@@H]3F)CC4)cc12` (single isomer, unassigned) [Cpd 79, 6-{7-[(1S,2S,3R,5R)-2-fluoro-8-azabicyclo[3.2.1]octan-3-yl]-6,7-dihydro-5H-pyrrolo[2,3-c]pyridazin-3-yl}-7-hydroxy-4-methyl-2H-1-benzopyran-2-one or 6-{7-[(1R,2R,3S,5S)-2-fluoro-8-azabicyclo[3.2.1]octan-3-yl]-6,7-dihydro-5H-pyrrolo[2,3-c]pyridazin-3-yl}-7-hydroxy-4-methyl-2H-1-benzopyran-2-one]: the IC50 was under 100 nM. For `Cc1cc(=O)oc2cc(O)c(-c3cc4c(nn3)N([C@H]3CCNC5(CC5)C3)CC4)cc12` [Cpd 66, 6-{7-[(7S)-4-azaspiro[2.5]octan-7-yl]-6,7-dihydro-5H-pyrrolo[2,3-c]pyridazin-3-yl}-7-hydroxy-4-methyl-2H-1-benzopyran-2-one], the IC50 was under 100 nM. For the compound `Cc1nc2cc(O)c(-c3cc4ccn([C@H]5CC(C)(C)NC(C)(C)[C@H]5F)c4nn3)cc2o1` [Cpd 3, 6-{7-[(3S,4S)-3-fluoro-2,2,6,6-tetramethylpiperidin-4-yl]-7H-pyrrolo[2,3-c]pyridazin-3-yl}-2-methyl-1,3-benzoxazol-5-ol], the IC50 was under 100 nM. For `Cc1nc2cc(O)c(-c3cc4ccn([C@H]5CC(C)(C)NC(C)(C)[C@H]5F)c4nn3)cc2s1` [Cpd 4, 6-{7-[(3S,4S)-3-fluoro-2,2,6,6-tetramethylpiperidin-4-yl]-7H-pyrrolo[2,3-c]pyridazin-3-yl}-2-methyl-1,3-benzothiazol-5-ol], the IC50 was under 100 nM.

Regarding `Cc1nc2cc(O)c(-c3cc4ncn([C@H]5CC(C)(C)NC6(CC6)C5)c4nn3)cc2s1` [Cpd 11, 6-{7-[(7S)-5,5-dimethyl-4-azaspiro[2.5]octan-7-yl]-7H-imidazo[4,5-c]pyridazin-3-yl}-2-methyl-1,3-benzothiazol-5-ol], the IC50 is under 100 nM. As for `COc1cc(=O)oc2cc(O)c(-c3cc4c(nn3)N([C@H]3CC(C)(C)NC(C)(C)[C@H]3F)CC4)cc12` [Cpd 78, 6-{7-[(3S,4S)-3-fluoro-2,2,6,6-tetramethylpiperidin-4-yl]-6,7-dihydro-5H-pyrrolo[2,3-c]pyridazin-3-yl}-7-hydroxy-4-methoxy-2H-1-benzopyran-2-one], the IC50 is under 100 nM.

Turning to `Cc1nc2cc(O)c(-c3cc4c(nn3)N([C@@H]3CCNC(C)(C)[C@@H]3F)CC4)cc2o1` (single isomer, unassigned) [Cpd 64, 6-{7-[(3R,4R)-3-fluoro-2,2-dimethylpiperidin-4-yl]-6,7-dihydro-5H-pyrrolo[2,3-c]pyridazin-3-yl}-2-methyl-1,3-benzoxazol-5-ol or 6-{7-[(3S,4S)-3-fluoro-2,2-dimethylpiperidin-4-yl]-6,7-dihydro-5H-pyrrolo[2,3-c]pyridazin-3-yl}-2-methyl-1,3-benzoxazol-5-ol], the concentration for half-maximal inhibition (IC50) is under 100 nM. Same read-out and setting: then `Cc1cnc2cc(O)c(-c3cc4ccn([C@H]5CC(C)(C)NC(C)(C)[C@H]5F)c4nn3)cc2c1` [Cpd 35, 6-{7-[(3S,4S)-3-fluoro-2,2,6,6-tetramethylpiperidin-4-yl]-7H-pyrrolo[2,3-c]pyridazin-3-yl}-3-methylquinolin-7-ol], with under 100 nM.

Take `Cc1nc2cc(O)c(-c3cc4nnn(C5CC(C)(C)NC6(CC6)C5)c4nn3)cc2s1` (stereo not drawn) [Cpd 12, 6-[3-(5,5-dimethyl-4-azaspiro[2.5]octan-7-yl)-3H-[1,2,3]triazolo[4,5-c]pyridazin-6-yl]-2-methyl-1,3-benzothiazol-5-ol]: the IC50 was under 100 nM.

For `CC1(C)C[C@H](n2ccc3cc(-c4cc5ccccc5cc4O)nnc32)[C@H](F)C(C)(C)N1` [Cpd 28, 3-{7-[(3S,4S)-3-fluoro-2,2,6,6-tetramethylpiperidin-4-yl]-7H-pyrrolo[2,3-c]pyridazin-3-yl}naphthalen-2-ol], the IC50 is under 100 nM. As to `Cc1nc2cc(O)c(-c3cc4nnn(C5CC(C)(C)NC(C)(C)C5)c4nn3)cc2s1` [Cpd 27, 2-methyl-6-[3-(2,2,6,6-tetramethylpiperidin-4-yl)-3H-[1,2,3]triazolo[4,5-c]pyridazin-6-yl]-1,3-benzothiazol-5-ol], the IC50 is under 100 nM. As for `Cc1ncc2cc(O)c(-c3cc4ccn([C@H]5CC(C)(C)NC(C)(C)[C@H]5F)c4nn3)cc2n1` [Cpd 39, 7-{7-[(3S,4S)-3-fluoro-2,2,6,6-tetramethylpiperidin-4-yl]-7H-pyrrolo[2,3-c]pyridazin-3-yl}-2-methylquinazolin-6-ol], the IC50 was under 100 nM.

For the compound `Cc1nc2cc(O)c(-c3cc4c(nn3)N([C@H]3CCNC5(CC5)C3)CC4)cc2o1` [Cpd 43, 6-{7-[(7S)-4-azaspiro[2.5]octan-7-yl]-6,7-dihydro-5H-pyrrolo[2,3-c]pyridazin-3-yl}-2-methyl-1,3-benzoxazol-5-ol], the IC50 is under 100 nM. Regarding `Cc1ccc2cc(-c3cc4ccn([C@H]5CC(C)(C)NC(C)(C)[C@H]5F)c4nn3)c(O)cc2n1` [Cpd 32, 6-{7-[(3S,4S)-3-fluoro-2,2,6,6-tetramethylpiperidin-4-yl]-7H-pyrrolo[2,3-c]pyridazin-3-yl}-2-methylquinolin-7-ol], the IC50 is under 100 nM. The same measure, in the same setting: then `Cc1ncc2cc(O)c(-c3cc4c(nn3)N([C@H]3CC(C)(C)NC(C)(C)[C@H]3F)CC4)cc2n1` [Cpd 87, 7-{7-[(3S,4S)-3-fluoro-2,2,6,6-tetramethylpiperidin-4-yl]-6,7-dihydro-5H-pyrrolo[2,3-c]pyridazin-3-yl}-2-methylquinazolin-6-ol], with under 100 nM; and `Cc1nc2cc(-c3cc4ccn([C@H]5CC(C)(C)NC(C)(C)[C@H]5F)c4nn3)c(O)cc2s1` [Cpd 8, 5-{7-[(3S,4S)-3-fluoro-2,2,6,6-tetramethylpiperidin-4-yl]-7H-pyrrolo[2,3-c]pyridazin-3-yl}-2-methyl-1,3-benzothiazol-6-ol], with under 100 nM; and `CC1(C)C[C@H](n2ccc3cc(-c4cc5ccncc5cc4O)nnc32)[C@H](F)C(C)(C)N1` [Cpd 29, 6-{7-[(3S,4S)-3-fluoro-2,2,6,6-tetramethylpiperidin-4-yl]-7H-pyrrolo[2,3-c]pyridazin-3-yl}isoquinolin-7-ol], with under 100 nM.

Regarding `Cc1nc2cc(O)c(-c3cc4c(nn3)N(C3CC5(CC5)NC5(CC5)C3)CC4)cc2o1` (stereo not drawn) [Cpd 72, 6-[7-(4-azadispiro[2.1.25.33]decan-9-yl)-6,7-dihydro-5H-pyrrolo[2,3-c]pyridazin-3-yl]-2-methyl-1,3-benzoxazol-5-ol], the IC50 was under 100 nM. As for `CC1(C)C[C@H](n2ccc3cc(-c4cc5nc(C(F)(F)F)oc5cc4O)nnc32)[C@H](F)C(C)(C)N1` [Cpd 24, 5-{7-[(3S,4S)-3-fluoro-2,2,6,6-tetramethylpiperidin-4-yl]-7H-pyrrolo[2,3-c]pyridazin-3-yl}-2-(trifluoromethyl)-1,3-benzoxazol-6-ol], the IC50 lay within 100 to 500 nM. For the compound `Cc1nc2cc(O)c(-c3cc4c(nn3)N([C@H]3C[C@@H]5CC[C@@H](N5)[C@H]3F)CC4)cc2s1` (single isomer, unassigned) [Cpd 58, 6-{7-[(1R,2R,3S,5S)-2-fluoro-8-azabicyclo[3.2.1]octan-3-yl]-6,7-dihydro-5H-pyrrolo[2,3-c]pyridazin-3-yl}-2-methyl-1,3-benzothiazol-5-ol or 6-{7-[(1S,2S,3R,5R)-2-fluoro-8-azabicyclo[3.2.1]octan-3-yl]-6,7-dihydro-5H-pyrrolo[2,3-c]pyridazin-3-yl}-2-methyl-1,3-benzothiazol-5-ol], the half-inhibitory concentration (IC50) was under 100 nM.
